Results published in patent publication US12180194B2, “Multi-aziridine compound” (Covestro (Netherlands) B.V., priority 2018, dated 2024).

What was measured:
[1] = system: Rtkn-GFP; assay: ToxTracker genotoxicity assay, Rtkn-GFP reporter induction; details: for Genotoxicity test, With S9 rat liver extract, Rtkn, 10 / Genotoxicity test, Without S9 rat liver extract, Rtkn, 10: GFP induction vs vehicle at 10% cytotoxicity; for Genotoxicity test, With S9 rat liver extract, Rtkn, 10 / Genotoxicity test, With S9 rat liver extract, Rtkn, 25 / Genotoxicity test, With S9 rat liver extract, Rtkn, 50: 3 h exposure with S9, 24 h recovery; for Genotoxicity test, Without S9 rat liver extract, Rtkn, 10 / Genotoxicity test, Without S9 rat liver extract, Rtkn, 25 / Genotoxicity test, Without S9 rat liver extract, Rtkn, 50: 24 h exposure, no S9; for Genotoxicity test, With S9 rat liver extract, Rtkn, 25 / Genotoxicity test, Without S9 rat liver extract, Rtkn, 25: GFP induction vs vehicle at 25% cytotoxicity; for Genotoxicity test, With S9 rat liver extract, Rtkn, 50 / Genotoxicity test, Without S9 rat liver extract, Rtkn, 50: GFP induction vs vehicle at 50% cytotoxicity; for Genotoxicity test, Rtkn induction level: fold induction
[2] = system: Bscl2-GFP; assay: ToxTracker genotoxicity assay, Bscl2-GFP reporter induction; details: for Genotoxicity test, With S9 rat liver extract, Bscl 2, 10 / Genotoxicity test, Without S9 rat liver extract, Bscl 2, 10: GFP induction vs vehicle at 10% cytotoxicity; for Genotoxicity test, With S9 rat liver extract, Bscl 2, 10 / Genotoxicity test, With S9 rat liver extract, Bscl 2, 25 / Genotoxicity test, With S9 rat liver extract, Bscl 2, 50: 3 h exposure with S9, 24 h recovery; for Genotoxicity test, Without S9 rat liver extract, Bscl 2, 10 / Genotoxicity test, Without S9 rat liver extract, Bscl 2, 25 / Genotoxicity test, Without S9 rat liver extract, Bscl 2, 50: 24 h exposure, no S9; for Genotoxicity test, With S9 rat liver extract, Bscl 2, 25 / Genotoxicity test, Without S9 rat liver extract, Bscl 2, 25: GFP induction vs vehicle at 25% cytotoxicity; for Genotoxicity test, With S9 rat liver extract, Bscl 2, 50 / Genotoxicity test, Without S9 rat liver extract, Bscl 2, 50: GFP induction vs vehicle at 50% cytotoxicity; for Genotoxicity test, Bscl 2 induction level: fold induction
[3] = with S9 rat liver extract, concentration 10 (10% cytotoxicity)
[4] = with S9 rat liver extract, concentration 25 (25% cytotoxicity)
[5] = with S9 rat liver extract, concentration 50 (50% cytotoxicity)
[6] = without S9 rat liver extract, concentration 10 (10% cytotoxicity)
[7] = without S9 rat liver extract, concentration 25 (25% cytotoxicity)
[8] = without S9 rat liver extract, concentration 50 (50% cytotoxicity)

Row | SMILES | Genotoxicity test, With S9 rat liver extract, Rtkn, 10 [1] | Genotoxicity test, Without S9 rat liver extract, Rtkn, 10 [1] | Genotoxicity test, With S9 rat liver extract, Rtkn, 25 [1] | Genotoxicity test, Without S9 rat liver extract, Rtkn, 25 [1] | Genotoxicity test, With S9 rat liver extract, Rtkn, 50 [1] | Genotoxicity test, Without S9 rat liver extract, Rtkn, 50 [1] | Genotoxicity test, With S9 rat liver extract, Bscl 2, 10 [2] | Genotoxicity test, Without S9 rat liver extract, Bscl 2, 10 [2] | Genotoxicity test, With S9 rat liver extract, Bscl 2, 25 [2] | Genotoxicity test, Without S9 rat liver extract, Bscl 2, 25 [2] | Genotoxicity test, With S9 rat liver extract, Bscl 2, 50 [2] | Genotoxicity test, Without S9 rat liver extract, Bscl 2, 50 [2] | other results
1 | CCCCOCC(CN1CC1C)OC(=O)NC(C)(C)c1cccc(C(C)(C)NC(=O)OC(COCCCC)CN2CC2C)c1 (centres unmarked) [Ex. 11] | 1.3 fold | 1.1 fold | 1.3 fold | 1.3 fold | 1.1 fold | 1.3 fold | 1.2 fold | 1.1 fold | 1.3 fold | 1.3 fold | 1.3 fold | 1.3 fold | –
2 | CCCCOCC(CN1CC1CC)OC(=O)NCCCCCCn1c(=O)n(CCCCCCNC(=O)OC(COCCCC)CN2CC2CC)c(=O)n(CCCCCCNC(=O)OC(COCCCC)CN2CC2CC)c1=O (centres unmarked) [Ex. 32] | – | – | – | – | – | – | – | – | – | – | – | – | Genotoxicity test, Rtkn induction level [1, 3]: 1.0; Genotoxicity test, Rtkn induction level [1, 4]: 1.1; Genotoxicity test, Rtkn induction level [1, 5]: 1.1; Genotoxicity test, Rtkn induction level [1, 6]: 1.0; Genotoxicity test, Rtkn induction level [1, 7]: 1.1; Genotoxicity test, Rtkn induction level [1, 8]: 1.1; Genotoxicity test, Bscl 2 induction level [2, 3]: 1.1; Genotoxicity test, Bscl 2 induction level [2, 4]: 1.1; Genotoxicity test, Bscl 2 induction level [2, 5]: 1.1; Genotoxicity test, Bscl 2 induction level [2, 6]: 1.1; Genotoxicity test, Bscl 2 induction level [2, 7]: 1.2; Genotoxicity test, Bscl 2 induction level [2, 8]: 1.3
3 | CC(CN1CC1C)OC(=O)NCCCCCC/N=c1\oc(=O)n(CCCCCCNC(=O)OC(C)CN2CC2C)c(=O)n1CCCCCCNC(=O)OC(C)CN1CC1C (centres unmarked) [Ex. 2] | 1.1 fold | 1.1 fold | – | 1.0 fold | – | 0.9 fold | 1.0 fold | 1.1 fold | – | 1.1 fold | – | 0.9 fold | –
4 | COCCOCCOCCOCCOCCOCCOCCOCCOCCOCCOCCOCCOCCOCCOCCOCCOCCOCCOCCOCCOCCOCCOCCOCCOCCOCC(CN1CC1C)OC(=O)NCCCCCCn1c(=O)n(CCCCCCNC(=O)OC(COCCOCCOCCOCCOCCOCCOCCOCCOCCOCCOCCOCCOCCOCCOCCOCCOCCOCCOCCOCCOCCOCCOCCOCCOCCOC)CN2CC2C)c(=O)n(CCCCCCNC(=O)OC(COCCOCCOCCOCCOCCOCCOCCOCCOCCOCCOCCOCCOCCOCCOCCOCCOCCOCCOCCOCCOCCOCCOCCOCCOCCOC)CN2CC2C)c1=O (centres unmarked) [Ex. 30] | – | – | – | – | – | – | – | – | – | – | – | – | Genotoxicity test, Rtkn induction level [1, 3]: 0.8; Genotoxicity test, Rtkn induction level [1, 4]: 0.9; Genotoxicity test, Rtkn induction level [1, 5]: 1.0; Genotoxicity test, Rtkn induction level [1, 6]: 0.9; Genotoxicity test, Rtkn induction level [1, 7]: 0.9; Genotoxicity test, Rtkn induction level [1, 8]: 1.0; Genotoxicity test, Bscl 2 induction level [2, 3]: 1.0; Genotoxicity test, Bscl 2 induction level [2, 4]: 1.5; Genotoxicity test, Bscl 2 induction level [2, 5]: 1.8; Genotoxicity test, Bscl 2 induction level [2, 6]: 1.0; Genotoxicity test, Bscl 2 induction level [2, 7]: 1.3; Genotoxicity test, Bscl 2 induction level [2, 8]: 1.6
5 | C=CCOCC(CN1CC1C)OC(=O)NCCCCCCn1c(=O)n(CCCCCCNC(=O)OC(COCC=C)CN2CC2C)c(=O)n(CCCCCCNC(=O)OC(COCC=C)CN2CC2C)c1=O (centres unmarked) [Ex. 9] | 1.1 fold | 1.0 fold | 1.1 fold | 1.1 fold | 1.2 fold | 1.1 fold | 1.2 fold | 1.1 fold | 1.2 fold | 1.2 fold | 1.2 fold | 1.2 fold | –
6 | COCCOCCOCCOCCOCCOCCOCCOCCOCCOCCOCCOCCOCCOCC(CN1CC1C)OC(=O)NCCCCCCn1c(=O)n(CCCCCCNC(=O)OC(COCCOCCOCCOCCOCCOCCOCCOCCOCCOCCOCCOCCOCCOC)CN2CC2C)c(=O)n(CCCCCCNC(=O)OC(COCCOCCOCCOCCOCCOCCOCCOCCOCCOCCOCCOCCOCCOC)CN2CC2C)c1=O (centres unmarked) [Ex. 29] | 1.1 fold | 1.0 fold | 1.1 fold | 1.1 fold | 1.1 fold | 1.1 fold | 1.1 fold | 1.1 fold | 1.1 fold | 1.4 fold | 1.1 fold | 1.4 fold | –
7 | CCCCOCC(CN1CC1C)OC(=O)NCCCCCCn1c(=O)n(CCCCCCNC(=O)OC(COCCCC)CN2CC2C)c(=O)n(CCCCCCNC(=O)OC(COCCCC)CN2CC2C)c1=O (centres unmarked) [Ex. 14] | 0.9 fold | 0.8 fold | 0.8 fold | 0.8 fold | 0.6 fold | 0.6 fold | 1.0 fold | 1.1 fold | 1.0 fold | 1.1 fold | – | 1.1 fold | –
8 | Cc1ccccc1OCC(CN1CC1C)OC(=O)NCCCCCCn1c(=O)n(CCCCCCNC(=O)OC(COc2ccccc2C)CN2CC2C)c(=O)n(CCCCCCNC(=O)OC(COc2ccccc2C)CN2CC2C)c1=O (centres unmarked) [Ex. 21] | 1.2 fold | 1.2 fold | 1.4 fold | 1.3 fold | 1.5 fold | 1.5 fold | 1.0 fold | 1.1 fold | 1.3 fold | 1.2 fold | 1.4 fold | 1.6 fold | –
9 | CCCCOCC(CN1CC1C)OC(=O)NC1CCC(CC2CCC(NC(=O)OC(COCCCC)CN3CC3C)CC2)CC1 (centres unmarked) [Ex. 12] | 1.0 fold | 1.0 fold | 1.0 fold | 1.0 fold | 1.1 fold | 1.0 fold | 1.1 fold | 1.0 fold | 1.0 fold | 1.0 fold | 1.0 fold | 1.0 fold | –
10 | CC(CN1CC1C)OC(=O)NC(C)(C)c1cccc(C(C)(C)NC(=O)OC(C)CN2CC2C)c1 (centres unmarked) [Comp. Ex. 8, reference compound] | 1.3 fold | 1.4 fold | 4.2 fold | 2.3 fold | 4.9 fold | 4.8 fold | 1.1 fold | 1.2 fold | 2.1 fold | 1.7 fold | 2.1 fold | 2.3 fold | –
11 | CCC(CN1CC1C)OC(=O)NCCCCCCn1c(=O)n(CCCCCCNC(=O)OC(CC)CN2CC2C)c(=O)n(CCCCCCNC(=O)OC(CC)CN2CC2C)c1=O (centres unmarked) [Ex. 7] | 1.1 fold | 1.1 fold | 1.3 fold | 1.3 fold | 1.5 fold | – | 1.1 fold | 1.1 fold | 1.3 fold | 1.1 fold | 1.5 fold | – | –
12 | CC(CN1CC1C)OC(=O)NC1CCC(CC2CCC(NC(=O)OC(C)CN3CC3C)CC2)CC1 (centres unmarked) [Comp. Ex. 9, reference compound] | 1.6 fold | 1.5 fold | 2.6 fold | 2.2 fold | 3.7 fold | 3.3 fold | 1.2 fold | 1.2 fold | 1.6 fold | 1.6 fold | 2.0 fold | 2.2 fold | –
